Test results from ChEMBL document CHEMBL5614422, “Design, synthesis and biological evaluation of N-salicyloyl tryptamine derivatives as multifunctional neuroprotectants for the treatment of ischemic stroke” (Eur J Med Chem, 2024).
The source made the active and inactive calls. No cut-off for these calls is given here.

Key:
HT-22 [1] = experiment: Antioxidant activity against OGD/R induced oxidative stress in mouse HT-22 cells assessed as reduction in ROS release level at 1 to 10 uM by DCFH-DA staining based flow cytometry analysis; format: functional, cell-based; conditions: dose 1-10 µM
HT-22 [2] = experiment: Anti-ferroptotic activity in mouse HT-22 cells assessed as prevention of erastin-induced cell death at 1 to 10 uM by MTT assay; format: functional, cell-based; conditions: dose 1-10 µM
HT-22 [3] = experiment: Induction of morphological changes in OGD/R induced mouse HT-22 cells assessed as attenuation of cell rounding by microscopic based analysis; format: functional
[4] = molecular target: T1, Nuclear factor erythroid 2-related factor 2 (Mus musculus) (UniProt Q60795); experiment: Activation of Nrf2 in OGD/R induced mouse HT-22 cells assessed as induction of Nrf2 nuclear translocation at 1 to 10 uM by immunofluorescence analysis; format: cell-based; conditions: filed as activator, dose 1-10 µM
T1 sequence (whole entry): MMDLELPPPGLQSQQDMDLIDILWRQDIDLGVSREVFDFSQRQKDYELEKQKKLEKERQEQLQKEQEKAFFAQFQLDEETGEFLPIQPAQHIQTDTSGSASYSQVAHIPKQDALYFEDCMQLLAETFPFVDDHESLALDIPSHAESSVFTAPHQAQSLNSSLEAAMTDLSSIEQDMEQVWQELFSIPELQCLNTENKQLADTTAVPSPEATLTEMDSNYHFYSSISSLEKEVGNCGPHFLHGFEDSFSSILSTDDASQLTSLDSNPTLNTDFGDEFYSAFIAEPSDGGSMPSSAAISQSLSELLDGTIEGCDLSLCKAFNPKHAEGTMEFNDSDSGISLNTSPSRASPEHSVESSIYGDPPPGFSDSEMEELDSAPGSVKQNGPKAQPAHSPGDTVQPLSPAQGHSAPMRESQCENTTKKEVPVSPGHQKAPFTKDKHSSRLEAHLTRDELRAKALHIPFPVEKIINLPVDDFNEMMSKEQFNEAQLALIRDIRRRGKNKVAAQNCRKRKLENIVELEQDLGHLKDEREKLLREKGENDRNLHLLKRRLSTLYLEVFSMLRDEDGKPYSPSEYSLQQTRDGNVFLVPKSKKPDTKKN

HT-22 [5] = experiment: Upregulation of NQO1 protein level in OGD/R induced mouse HT-22 cells at 1 to 10 uM by Western blot analysis; format: functional, cell-based; conditions: dose 1-10 µM
HT-22 [6] = experiment: Upregulation of GPX4 protein level in OGD/R induced mouse HT-22 cells at 1 to 10 uM by Western blot analysis; format: functional, cell-based; conditions: dose 1-10 µM
HT-22 [7] = experiment: Upregulation of Nrf2 protein level in OGD/R induced mouse HT-22 cells at 1 to 10 uM by Western blot analysis; format: functional, cell-based; conditions: dose 1-10 µM
HT-22 [8] = experiment: Upregulation of Nrf2 mRNA level in OGD/R induced mouse HT-22 cells at 1 to 10 uM by qRT-PCR analysis; format: functional, cell-based; conditions: dose 1-10 µM
HT-22 [9] = experiment: Anti-ferroptotic activity against OGD/R induced mouse HT-22 cells decrease as in Fe2+ level at 10 uM by cell ferrous calorimetry analysis; format: functional, cell-based
HT-22 [10] = experiment: Upregulation of HO-1 protein level in OGD/R induced mouse HT-22 cells at 10 uM in presence of ML385 by Western blot analysis; format: functional, cell-based
HT-22 [11] = experiment: Upregulation of Nrf2 protein level in OGD/R induced mouse HT-22 cells at 10 uM in presence of ML385 by Western blot analysis; format: functional, cell-based
HT-22 [12] = experiment: Upregulation of GPX4 protein level in OGD/R induced mouse HT-22 cells at 10 uM in presence of ML385 by Western blot analysis; format: functional, cell-based
Mus musculus [13] = experiment: Neuroprotective activity against MCAO-R induced 12 hrs fasted male C57BL/6J mouse model assessed as reduction in infarct volume administered as ip once a day for 7 days by TTC staining based analysis; format: functional, organism-based; conditions: time 7.0 day
Mus musculus [14] = experiment: Neuroprotective activity against MCAO-R induced 12 hrs fasted male C57BL/6J mouse model assessed as reduction in neurologic deficit score administered as ip once a day for 7 days by TTC staining based analysis; format: functional, organism-based; conditions: time 7.0 day
Mus musculus [15] = experiment: Neuroprotective activity against MCAO-R induced 12 hrs fasted male C57BL/6J mouse model assessed as improvement in neuronal mortality at 10 to 50 mg/kg, ip administered once a day for 7 days by H and E staining based analysis; format: functional, organism-based; conditions: dose 10-50 mg/kg, time 7.0 day
Mus musculus [16] = experiment: Neuroprotective activity against MCAO-R induced 12 hrs fasted male C57BL/6J mouse model assessed as improvement in brain tissue structure at 10 to 50 mg/kg, ip administered once a day for 7 days by H and E staining based analysis; format: functional, organism-based; conditions: dose 10-50 mg/kg, time 7.0 day
Mus musculus [17] = experiment: Neuroprotective activity against MCAO-R induced 12 hrs fasted male C57BL/6J mouse model assessed as alleviation of neurological impairment at 10 to 50 mg/kg, ip administered once a day for 7 days by H and E staining based analysis; format: functional, organism-based; conditions: dose 10-50 mg/kg, time 7.0 day
Mus musculus [18] = experiment: Neuroprotective activity against MCAO-R induced 12 hrs fasted male C57BL/6J mouse model assessed as decrease in MDA level in cerebral ischemic tissue at 10 to 50 mg/kg, ip administered once a day for 7 days; format: functional, organism-based; conditions: dose 10-50 mg/kg, time 7.0 day
Mus musculus [19] = experiment: Neuroprotective activity against MCAO-R induced 12 hrs fasted male C57BL/6J mouse model assessed as increase in SOD activity in cerebral ischemic tissue at 10 to 50 mg/kg, ip administered once a day for 7 days; format: functional, organism-based; conditions: dose 10-50 mg/kg, time 7.0 day
Mus musculus [20] = experiment: Neuroprotective activity against MCAO-R induced 12 hrs fasted male C57BL/6J mouse model assessed as decrease in S100 expression in CA3 by measuring decrease in fluorescence intensity administered once a day as ip dose for 7 days by immunofluorescence method; format: functional, organism-based; conditions: dose 10-50 mg/kg, time 7.0 day
Mus musculus [21] = experiment: Neuroprotective activity against MCAO-R induced 12 hrs fasted male C57BL/6J mouse model assessed as decrease in S100 expression in DG by measuring decrease in fluorescence intensity administered once a day as ip dose for 7 days by immunofluorescence method; format: functional, organism-based; conditions: dose 10-50 mg/kg, time 7.0 day
Mus musculus [22] = experiment: Neuroprotective activity against MCAO-R induced 12 hrs fasted male C57BL/6J mouse model assessed as decrease in S100 expression in cortex by measuring decrease in fluorescence intensity administered once a day as ip dose for 7 days by immunofluorescence method; format: functional, organism-based; conditions: dose 10-50 mg/kg, time 7.0 day
Mus musculus [23] = experiment: Neuroprotective activity against MCAO-R induced 12 hrs fasted male C57BL/6J mouse model assessed as decrease in S100 expression in CA1 by measuring decrease in fluorescence intensity administered once a day as ip dose for 7 days by immunofluorescence method; format: functional, organism-based; conditions: dose 10-50 mg/kg, time 7.0 day
Mus musculus [24] = experiment: In vivo activation of Nrf2 pathway in MCAO-R induced 12 hrs fasted male C57BL/6J mouse model assessed as increase in HO-1 expression level at 10 to 50 mg/kg, ip by Western blot analysis; format: functional, organism-based; conditions: dose 10-50 mg/kg
Mus musculus [25] = experiment: In vivo activation of Nrf2 pathway in MCAO-R induced 12 hrs fasted male C57BL/6J mouse model assessed as increase in GCLC expression level at 10 to 50 mg/kg, ip by Western blot analysis; format: functional, organism-based; conditions: dose 10-50 mg/kg
Mus musculus [26] = experiment: Neuroprotective activity against MCAO-R induced 12 hrs fasted male C57BL/6J mouse model assessed as reduction in neurologic deficit score at 10 to 50 mg/kg, ip for 7 days by […]; format: functional, organism-based; conditions: dose 10-50 mg/kg, time 7.0 day

With `Cc1ccc(C(=O)NCCc2c[nH]c3ccc(N(C)C)cc23)c(O)c1` the Activity (HT-22 [1]) was “Active”, the Activity (HT-22 [2]) was “Active” and the Activity (HT-22 [3]) was “Active”. For the same compound, the Activity [4] was “Active”, the Activity (HT-22 [5]) was “Active” and the Activity (HT-22 [6]) was “Active”. The Activity (HT-22 [7]) was “Active”, the Activity (HT-22 [8]) was “Active” and the Activity (HT-22 [9]) was “Active”. For the same compound, the Activity (HT-22 [10]) was “inactive”, the Activity (HT-22 [11]) was “inactive” and the Activity (HT-22 [12]) was “inactive”. For the same compound, the Activity (Mus musculus [13]) was “Dose-Dependent Effect”, the Activity (Mus musculus [14]) was “Dose-Dependent Effect” and the Activity (Mus musculus [15]) was “Active”. For the same compound, the Activity (Mus musculus [16]) was “Active”, the Activity (Mus musculus [17]) was “Active” and the Activity (Mus musculus [18]) was “Active”. The Activity (Mus musculus [19]) was “Active”, the Activity (Mus musculus [20]) was “Dose-Dependent Effect” and the Activity (Mus musculus [21]) was “Dose-Dependent Effect”. The Activity (Mus musculus [22]) was “Dose-Dependent Effect”, the Activity (Mus musculus [23]) was “Dose-Dependent Effect” and the Activity (Mus musculus [24]) was “Active”. For the same compound, the Activity (Mus musculus [25]) was “Active” and the Activity (Mus musculus [26]) was “Active”.
